The test system of experiment [1] is Candida albicans. As to the kind of experiment: Antimicrobial activity against Candida albicans SC5314 assessed as reduction of biofilm metabolic activity in in vitro catheter-associated rat model at 64 ug/ml by XTT assay. The format is functional, organism-based. For orientation: Formazan colour is commonly taken as a measure of viable cells.
In experiment [2] the test system is Candida albicans. Description: Antimicrobial activity against Candida albicans SC5314 biofilms infected in Sprague-Dawley rat implanted subcutaneously with catheter fragments challenged Candida cells assessed as […] at 125 mg/kg, ip qd for 7 days (Rvb=2.92 +/- 0.34 log10 CFU/catheter fragment). The format is functional. As to conditions: […].

In experiment [3] the test system is Candida albicans. As to the kind of experiment: Antimicrobial activity against Candida albicans SC5314 assessed as reduction of biofilm metabolic activity in in vitro catheter-associated rat model by XTT assay. In kind it is functional.
The subject of experiment [4] is Candida albicans. As to the kind of experiment: Antimicrobial activity against Candida albicans SC5314 biofilms infected in Sprague-Dawley rat implanted subcutaneously with catheter fragments challenged Candida cells assessed as […] at 10 mg/kg, ip qd for 7 days (Rvb=2.92 +/- 0.34 log10 CFU/catheter fragment). As to conditions: […]. In kind it is functional.

Converted amounts (≈) assume the structure as drawn. The source made the active and inactive calls. The calls are words filed in the database; no cut-off is given here. *1 amine or outer side, *2 acyl side, *3 side chain or, on linkers, in order; H or OH if unused. Where a SMILES comes first, the peptide text is derived from it. Bridges are numbered along the chain shown (N, C = ends). [ ]: non-standard residue; d: D form. The star is where a group is joined. pTerphenylCO(4''-OnC5H11) = CCCCCOc1ccc(-c2ccc(-c3ccc(C(=O)*)cc3)cc2)cc1; Orn(4R-OH,5R-OH) = O=C([C@H](C[C@@H](O)[C@@H](O)N[*:3])N[*:1])[*:2]; hTyr(3S-OH,4S-OH) = N[C@H](C(=O)O)[C@H](O)[C@@H](O)c1ccc(O)cc1; Pro(3S-OH,4S-Me) = C[C@H]1CN[C@H](C(=O)O)[C@H]1O; Hyp = O=C(O)[C@@H]1C[C@@H](O)CN1

In the case of `OC(Cn1cncn1)(Cn1cncn1)c1ccc(F)cc1F` [FLUCONAZOLE], the result in the experiment on Candida albicans [1] was inactive. Moreover, in the experiment on Candida albicans [2], the log10cfu is on record as 3.01.
`CCCCCOc1ccc(-c2ccc(-c3ccc(C(=O)N[C@H]4C[C@@H](O)[C@@H](O)NC(=O)[C@@H]5[C@@H](O)[C@@H](C)CN5C(=O)[C@H]([C@@H](C)O)NC(=O)[C@H]([C@H](O)[C@@H](O)c5ccc(O)cc5)NC(=O)[C@@H]5C[C@@H](O)CN5C(=O)[C@H]([C@@H](C)O)NC4=O)cc3)cc2)cc1` [ANIDULAFUNGIN] ({pTerphenylCO(4''-OnC5H11)}-[Orn(4R-OH,5R-OH)]T[Hyp][hTyr(3S-OH,4S-OH)]T[Pro(3S-OH,4S-Me)]; lactam 1-C): the MIC in the experiment with Candida albicans [3] is 0.25 µg/mL (≈ 0.219 µM). Moreover, the log10cfu in the experiment on Candida albicans [4] came to 2.14.

Values taken from ChEMBL document CHEMBL1671736, “In vivo efficacy of anidulafungin against mature Candida albicans biofilms in a novel rat model of catheter-associated Candidiasis” (2010).
